In patent US20150216870A1, “Combination of PI3K Inhibitor and C-Met Inhibitor” (Novartis AG, priority 2012, published 2015):
Entries after “also recorded” stand apart in the source; their conditions may differ.

What was measured:
EBC-1 = assay: Cell viability (CellTiterGlo) combination dose matrix in EBC-1; type: cell-based, human; details: combination with c-Met inhibitor, 72 h, excluding highest concentration, 0 no inhibition, 1 = 100% inhibition/stasis, 2 = cell death
Protocol: (§2) Compound stocks of both compounds are individually prepared in DMSO. Compounds are serially diluted using a Tecan dispenser to cover a ˜1000× range of concentrations. […] Both single agent and combinations are tested at multiple concentrations, along with controls and one self-cross.
(§3) The cell lines used in this study are purchased from American Type Cell Collection, including human non small cell lung cancer cell lines EBC-1 (which bears c-Met amplification), NCI-H1993 (which bears c-MET amplified), NCI-H1648 (which bears c-Met amplification), NCI-H1573 (which bears c-Met amplification and KRAS mutation) and HCC2935 (EGFR mutation). All cell lines are maintained in their respective culture medium as specified by the provider.
(§4) For the assessment of combination effects, cells are seeded into 384-well plates at 500 cells/well and incubated overnight. […]
(§5) Effects of single agents as well as their combination on cell viability is assessed after 72 hours of incubation at 37° C./5% CO2 by quantification of cellular ATP levels (CellTiterGlo, Promega) using 25 μL reagent/well and n=2 replicate plates per condition. The number/viability of cells at time of compound addition is likewise assessed and used to estimate the population doubling time of a cell line.
(§6) For untreated and treated levels U and T, inhibition is calculated using the formula I=1−T/U, which ranges from 0% to 100% for complete inhibition. […]
(§7) The Loewe expectation [Loewe S., Ergebn Physiol 27: 47-187 (1928)) is calculated at each dose pair CX,Y by finding the inhibition ILoewe such that (CX/ICX)+(CY/ICY)=1, and ICX,Y are the effective concentrations at ILoewe for the fitted single agent curves, using numerical optimization [Berenbaum M C, J Theor Biol 114: 413-431 (1985)]. The “synergy score” S is calculated by averaging the difference between Idata and ILoewe across all the tested combination dose points, excluding the highest concentration point in the dose matrix, which is most likely to be dominated by drug off-target effects. […]

NCI-H1993 = assay: Cell viability (CellTiterGlo) combination dose matrix in NCI-H1993; type: cell-based, human; details: combination with c-Met inhibitor, 72 h, excluding highest concentration
Protocol: as §2, §3, §4, §5, §6, §7

NCI-H1648 = assay: Cell viability (CellTiterGlo) combination dose matrix in NCI-H1648; type: cell-based, human; details: combination with c-Met inhibitor, 72 h, excluding highest concentration
Protocol: as §2, §3, §4, §5, §6, §7

NCI-H1573 = assay: Cell viability (CellTiterGlo) combination dose matrix in NCI-H1573; type: cell-based, human; details: combination with c-Met inhibitor, 72 h, excluding highest concentration
Protocol: as §2, §3, §4, §5, §6, §7

HCC2935 = assay: Cell viability (CellTiterGlo) combination dose matrix in HCC2935; type: cell-based, human; details: combination with c-Met inhibitor, 72 h, excluding highest concentration
Protocol: as §2, §3, §4, §5, §6, §7

[1] = tested on: NCI-H1993 human non-small cell lung carcinoma xenograft; assay: NCI-H1993 xenograft tumor growth inhibition and tumor growth delay; type: in vivo, athymic nude mice; details: COMPOUND D 30 mg/kg p.o. qd to end
From the text: In this experiment, the NCI-H1993 human non-small cell lung carcinoma xenograft model is used to assess the anti-tumor efficacy of the PI3K inhibitor COMPOUND D and c-Met inhibitor 2-fluoro-N-methyl-4-[7-quinolin-6-yl-methyl)-imidazo[1,2-b][1,2,4]triazin-2yl]benzamide as single agents or in combination. NCI-H1993 tumor cells obtained from the American Type Culture Collection (ATCC) are derived from a lymph node metastasis of a patient having a stage 3A lung adenocarcinoma and a history of smoking.
Female athymic nude mice (Crl:NU (Ncr)-Foxn1^nu, Charles River) are 8 weeks old, and have a body weight (BW) range of 16.1-26.2 g, on D1 of the study. The animals are fed ad libitum water (reverse osmosis, 1 ppm CI) and NIH 31 Modified and Irradiated Lab Diet® consisting of 18.0% crude protein, 5.0% crude fat, and 5.0% crude fiber. The mice are housed on irradiated Enrich-O'cobs™ Laboratory Animal Bedding in static microisolators on a 12-hour light cycle at 20-22° C. (68-72° F.) and 40-60% humidity.
The NCI-H1993 tumor line is obtained from the American Type Culture Collection and maintained at DRS_NC in RPMI-1640 medium containing 100 unites/penicillin G sodium, 100 µg/mL streptomycin sulfate, 25 µg/mL gentamicin, 10% fetal bovine serum, and 2 mM glutamine. The tumor cells are cultured in tissue culture flasks in a humidified incubator at 37° C. in an atmosphere of 5% CO2 and 95% air.
The tumor cells used for implementation are harvested during log phase growth and resuspended in cold PBS containing 50% Matrigel™ (BD Biosciences). Each mouse is injected subcutaneously in the right flank with 1×10^7 cells (0.2 mL cell suspension). Tumors are calipered in two dimensions to monitor growth as their mean volume approached the desired 200-250 mm^3 range. Tumor size, in mm^3, was calculated from: Tumor Volume=(width^2×length)/2, where width and length (in mm) are measurements of the tumor. Tumor weight can be estimated with the assumption that 1 mg is equivalent to 1 mm^3 of tumor volume. Fourteen days after tumor cell implantation, on D1 of the study, mice with individual tumor volumes of 172-256 mm^3 are sorted into groups of ten mice, with group mean tumor volumes of 206-215 mm^3.
The c-Met inhibitor 2-fluoro-N-methyl-4-[7-quinolin-6-yl-methyl)-imidazo[1,2-b][1,2,4]triazin-2yl]benzamide (HCl salt, 84.98% free base) is stored at 4° C. and is added to a volume of deionized water equal to 1/2 of the final volume and sonicated until dissolved to obtain a uniform 2× suspension. An equal volume of 0.5% methylcellulose: 0.1% Tween® 80 is added to provide a 1.77 mg/mL solution with final vehicle concentrations of 0.25% methylcellulose and 0.05% Tween® 80 in deionized water (Vehicle 1). Fresh solutions are prepared once daily for the […]. dosing and stored at room temperature until the a.m. dosing.
COMPOUND D is suspended at 3.0 mg/mL in 0.5% methylcellulose in deionized water. The vehicle is added in portions equal to 1/3 of the final volume. The suspension is vortexed after each addition, and then finally probe sonicated on ice to prepare a homogeneous white suspension. A fresh suspension is prepared weekly, stored at 4° C., and re-suspended prior to dosing.
The c-MET inhibitor and the vehicle is each administered via oral gavage (p.o.) twice daily for the duration of the study (b.i.d. to end). COMPOUND D is administered via oral gavage (p.o.) once daily for the duration of the study (qd to end). In combination therapies, COMPOUND D is dosed within 30 minutes after the c-Met inhibitor. In all groups, the dosing volume of 10 mL/kg (0.2 mL/20 g mouse) is scaled to the weight of each animal as determined on the day of dosing, except on weekends when the previous BW is carried forward.
The groups of nude mice (n=10/group) are treated as follows. Group 1 receive Vehicle 1 and Vehicle 2 and serve as controls for the study. […] Group 3 receives 30 mg/kg COMPOUND D monotherapy once daily for the duration of the study (qd to end).

[2] = Toxicity (body weight, deaths) in NCI-H1993 xenograft study; type: in vivo; details: COMPOUND D 30 mg/kg p.o. qd to end
Protocol: (§1) Animals are weighed on Days 1-5, on each treatment day (except weekends), and twice weekly thereafter, until the end of the study. The maximum group mean body weight (BW) loss is determined for the interval between D1 and D20 as well as for the entire study. Group mean BW nadir determinations exclude measurements taken after more than 50% of the assessable mice in the group have exited the study, and also exclude any animal that was classified as a non-treatment related (NTR) death during the study. Acceptable toxicity for the maximum tolerated dose (MTD) is defined as a group mean BW loss of less than 15% during the test, and not more than one TR death among ten animals. Any animal with BW losses exceeding 15% for three consecutive measurements, or with a BW loss exceeding 20% for one measurement, are euthanized, and classified as a TR death unless it was the first death in the group. A death is classified as NTR if there was no evidence that the death is related to treatment side effects and the death occurs more than 14 days after dosing ended. NTR deaths are categorized as NTRa (due to accident or error), NTRu (due to unknown causes), or NTRm (necropsy-confirmed tumor dissemination by invasion and/or metastasis). To conserve animals while providing maximum information, the first death in a group was classified as NTRu; such an NTR death was to be reclassified as TR if two subsequent TR deaths are recorded in the same group.

[3] = tested on: U-87 MG human glioblastoma xenograft; assay: U-87 MG xenograft tumor growth inhibition and tumor growth delay; type: in vivo, nude mice; details: temozolomide 100 mg/kg p.o. qd x5
Protocol: In this experiment, the U-87 MG human glioblastoma xenograft model is used to assess the anti-tumor efficacy of the PI3K inhibitor COMPOUND C and c-Met inhibitor 2-fluoro-N-methyl-4-[7-quinolin-6-yl-methyl)-imidazo[1,2-b][1,2,4]triazin-2yl]benzamide as single agents or in combination. U-87 MG tumor cells obtained from the National Cancer Institute are reported to be homozygous for likely oncogenic variants of CDKN2A, CDKN2C, CDKN2a, and PTEN; no mutations are detected in MET, PIK3CA, or 58 other genes that are frequently altered in neoplastic cells; and HGF expressing.
Mice are treated daily for 21 days with 17.7 and 35.3 mg/kg of the c-Met inhibitor and 32.7 mg/kg COMPOUND C monotherapies, and with the c-Met inhibitor/COMPOUND C dual therapy at 17.7:32.7. An c-Met inhibitor/COMPOUND C combination at the 58.8:5.4 mg/kg dose ratio was included in the study. The control mice received both vehicles, and a standard preclinical temozolomide regimen monitored tumor model performance. The oral treatments began on Day 1 (D1) in nude mice with established subcutaneous tumors. Each animal was euthanized when its tumor reached the predetermined 2000 mm3 endpoint volume, or on D60, whichever came first. The study was terminated on D51. […] Overall efficacy was determined from the times required for tumors to progress to the volume endpoint, and from D51 survival and regression rates. This report describes the methods and results of the U87MG-e326 tumor growth delay experiment.
The animals are fed ad libitum water (reverse osmosis, 1 ppm CI) and NIH 31 Modified and Irradiated Lab Diet® consisting of 18.0% crude protein, 5.0% crude fat, and 5.0% crude fiber. The mice are housed on irradiated Enrich-O'cobs™ Laboratory Animal Bedding in static microisolators on a 12-hour light cycle at 20-22° C. (68-72° F.) and 40-60% humidity.
The U-87 MG tumor line is obtained from the American Type Culture Collection and maintained by serial engraftment in nude mice. A tumor fragment (1 mm^3) is implanted subcutaneously into the right flank of each test mouse. Tumors are calipered in two dimensions to monitor growth as their mean volume approached the desired 100-150 mm^3 range. Tumor size, in mm^3, was calculated from: Tumor Volume=(width^2×length)/2, where width and length (in mm) are measurements of the tumor. Tumor weight can be estimated with the assumption that 1 mg is equivalent to 1 mm^3 of tumor volume. Fourteen days after tumor cell implantation, on D1 of the study, mice with individual tumor volumes of 63-196 mm^3 are sorted into seven groups, with group mean tumor volumes of 122-127 mm^3.
The c-Met inhibitor 2-fluoro-N-methyl-4-[7-quinolin-6-yl-methyl)-imidazo[1,2-b][1,2,4]triazin-2yl]benzamide (di-HCl salt, 84.98% free base) is stored at 4° C. and is added to deionized water at 2× the final concentration and sonicated until dissolved. An equal volume of 0.5% methylcellulose and 0.1% Tween® 80 in deionized water is added to provide a 5.884 mg/mL dosing solution in 0.25% methylcellulose and 0.05% Tween® 80 in deionized water (Vehicle 1). Portions of this solution are diluted with Vehicle 1 to provide 3.53 and 1.765 mg/mL dosing solutions.
COMPOUND C (HCl salt, 91.85% free base) is stored at −20° C. and is added to 1% Tween® 80 in deionized water and sonicated to obtain a uniform suspension at 2× the final concentration. […] The 0.544 mg/mL dosing suspension is obtained by diluting a portion of the first suspension with Vehicle 2.

[4] = Toxicity (deaths) in U-87 MG xenograft study; type: in vivo; details: temozolomide 100 mg/kg p.o. qd x5
From the text: as §1, with “the study. Group mean” for “the study. The maximum group mean body weight (BW) loss is determined for the interval between D1 and D20 as well as for the entire study. Group mean”, “the group had exited the” for “the group have exited the”, “and also excluded any animal” for “and also exclude any animal”, “classified as an NTR death during” for “classified as a non-treatment related (NTR) death during”, “classified as Non-Treatment Related (NTR) if there” for “classified as NTR if there”

Structure (SMILES)	MaxGI (GImax, combination effectiveness) (EBC-1)	MaxGI (GImax, combination effectiveness) (NCI-H1993)	MaxGI (GImax, combination effectiveness) (NCI-H1648)	MaxGI (GImax, combination effectiveness) (NCI-H1573)	MaxGI (GImax, combination effectiveness) (HCC2935)	% TGD [1]	D20 tumor growth inhibition / activity (in words) [1]	T-C [1]	T/C or T/T0 ([1]; D20)	Median TTE ([1]; endpoint 600 mm3)	Regression: PR ([1]; number of animals)	overall survival (in words) ([1]; vs control Group 1)	Deaths [2]	tolerability (in words) [2]	% TGD [3]	T/C or T/T0 ([3]; D13)	Median TTE ([3]; endpoint 2000 mm3)	Regress. ([3]; number of animals)	Deaths [4]
Cn1c(=O)n(-c2ccc(C(C)(C)C#N)cc2)c2c3cc(-c4cnc5ccccc5c4)ccc3ncc21 [COMPOUND A, 2-methyl-2-[4-(3-methyl-2-oxo-8-quinolin-3-yl-2,3-dihydro-imidazo[4,5-c]quinolin-1-yl)-phenyl]-propionitrile]	1.90	1.33	1.72	1.90	1.36	–	–	–	–	–	–	–	–	–	–	–	–	–	–
Cc1nc(NC(=O)N2CCC[C@H]2C(N)=O)sc1-c1ccnc(C(C)(C)C(F)(F)F)c1 [COMPOUND D, (S)-Pyrrolidine-1,2-dicarboxylic acid 2-amide 1-({4-methyl-5-[2-(2,2,2-trifluoro-1,1-dimethyl-ethyl)-pyridin-4-yl]-thiazol-2-yl}-amide)]	1.87	1.21	1.37	0.57	0.77	−4%	non-significant median tumor growth acceleration; also recorded: not significantly active (inactive)	-1.1 days	117%	24.0 days	1 PR	non-significantly briefer overall survival than control	(0)	Well-tolerated	–	–	–	–	–
Cn1nnc2c(C(N)=O)ncn2c1=O [Temozolomide, reference compound]	–	–	–	–	–	–	–	–	–	–	–	–	–	–	51%	48%	17.7 days	0	(0)
